From article PMC12459614 (European journal of medicinal chemistry, 2025)

Legend:
GPR17 = conditions: cited from earlier work
hGPR17L [1] = molecular target: T1, hGPR17L (Homo sapiens, UniProt Q13304); assay: Calcium mobilization assay; assay type: cell-based; conditions: for antagonist activity at GPR17: data not shown; for Emax: 1321-N1, read-out: % Efficacy Avg ± SEM
hGPR17 = hGPR17 (Homo sapiens, UniProt Q13304); assay: Cisbio HTRF β-arrestin recruitment assay, Schild analysis; assay type: cell-based; conditions: Table 1
hGPR17L [2] = molecular target: T1, hGPR17L; assay: cAMP signaling in GLUTag cells expressing hGPR17L; assay type: cell-based; conditions: for attenuation of MDL-mediated inhibition of forskolin-stimulated cAMP: 10 μM compound, 100 nM MDL, 10 μM forskolin
FGFR1 = FGFR1 (Homo sapiens, UniProt P11362); assay: PathHunter U2OS FGFR1 functional counter assay; assay type: cell-based; conditions: dose response
hGPR17L [3] = molecular target: T1, hGPR17L; assay: GLP-1 secretion assay in GLUTag cells expressing hGPR17L; assay type: cell-based; conditions: 6.3 μM MDL; for attenuation of MDL-mediated inhibition of GLP-1 secretion: 10 μM compound, 10 μM forskolin and 10 μM IBMX
GHSR1a = GHSR1a (Homo sapiens, UniProt Q92847); assay: PathHunter U2OS GHSR1a β-arrestin counter assay; assay type: cell-based; conditions: dose response
hGPR17L [4] = molecular target: T1, hGPR17L; assay: cAMP accumulation HTRF assay
hP2RY1 = hP2RY1 (Homo sapiens, UniProt P47900); assay: Calcium mobilization, Neuro-2a cells transiently transfected with hP2RY1; assay type: cell-based; conditions: 10 μM compound (300 μM MRS2179); 8 nM 2MeSADP
[5] = molecular target: N-methyl-D-aspartate (NMDA) receptors, glycine binding site; conditions: cited from earlier work
GPR17 (long isoform) = GPR17 (long isoform) (Homo sapiens, UniProt Q13304); assay: PathHunter GPR17 β-arrestin recruitment assay; assay type: cell-based; conditions: IC50 (antagonist mode), assay development; stimulated with 2 μM MDL (~EC80)
hCysLTR2 = molecular target: T2, hCysLTR2 (Homo sapiens, UniProt Q9NS75); assay: Calcium mobilization, Neuro-2a cells transiently transfected with hCysLTR2; assay type: cell-based; conditions: 10 μM compound; 50 nM LTD4
T2 sequence (Q9NS75 1-346): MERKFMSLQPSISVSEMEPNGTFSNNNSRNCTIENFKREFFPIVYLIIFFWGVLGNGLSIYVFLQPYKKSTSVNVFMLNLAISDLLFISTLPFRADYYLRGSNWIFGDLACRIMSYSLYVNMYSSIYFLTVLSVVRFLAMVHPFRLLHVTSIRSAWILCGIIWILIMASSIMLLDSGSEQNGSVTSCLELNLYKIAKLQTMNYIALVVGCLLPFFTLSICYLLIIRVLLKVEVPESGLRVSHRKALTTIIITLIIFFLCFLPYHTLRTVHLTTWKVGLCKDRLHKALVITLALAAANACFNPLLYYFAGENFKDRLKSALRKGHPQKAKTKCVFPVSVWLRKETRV

hCysLTR1 = molecular target: T3, hCysLTR1 (Homo sapiens, UniProt Q9Y271); assay: Calcium mobilization, Neuro-2a cells transiently transfected with hCysLTR1; assay type: cell-based; conditions: 10 μM compound; 50 nM LTD4
T3 sequence (Q9Y271 1-337): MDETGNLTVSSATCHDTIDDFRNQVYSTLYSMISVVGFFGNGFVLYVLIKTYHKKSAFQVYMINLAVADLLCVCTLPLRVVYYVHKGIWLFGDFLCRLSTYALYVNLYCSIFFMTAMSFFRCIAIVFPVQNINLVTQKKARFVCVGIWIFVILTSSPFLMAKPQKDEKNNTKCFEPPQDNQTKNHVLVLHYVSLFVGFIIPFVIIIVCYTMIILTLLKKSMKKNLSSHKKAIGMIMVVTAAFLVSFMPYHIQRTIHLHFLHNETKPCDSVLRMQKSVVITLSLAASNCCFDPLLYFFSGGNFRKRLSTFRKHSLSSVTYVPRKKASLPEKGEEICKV

T1 sequence (Q13304 whole entry): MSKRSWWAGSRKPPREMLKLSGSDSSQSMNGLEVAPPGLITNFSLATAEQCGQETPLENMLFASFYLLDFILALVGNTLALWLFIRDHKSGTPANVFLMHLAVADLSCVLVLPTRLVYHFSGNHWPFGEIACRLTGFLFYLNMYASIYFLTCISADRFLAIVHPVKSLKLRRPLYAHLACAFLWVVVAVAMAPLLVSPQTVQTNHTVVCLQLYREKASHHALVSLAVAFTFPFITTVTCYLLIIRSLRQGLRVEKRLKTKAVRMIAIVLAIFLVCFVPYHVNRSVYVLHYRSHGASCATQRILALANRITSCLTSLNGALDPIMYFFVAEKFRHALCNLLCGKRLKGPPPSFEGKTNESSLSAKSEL
Sequence of GHSR1a (Q92847 whole entry): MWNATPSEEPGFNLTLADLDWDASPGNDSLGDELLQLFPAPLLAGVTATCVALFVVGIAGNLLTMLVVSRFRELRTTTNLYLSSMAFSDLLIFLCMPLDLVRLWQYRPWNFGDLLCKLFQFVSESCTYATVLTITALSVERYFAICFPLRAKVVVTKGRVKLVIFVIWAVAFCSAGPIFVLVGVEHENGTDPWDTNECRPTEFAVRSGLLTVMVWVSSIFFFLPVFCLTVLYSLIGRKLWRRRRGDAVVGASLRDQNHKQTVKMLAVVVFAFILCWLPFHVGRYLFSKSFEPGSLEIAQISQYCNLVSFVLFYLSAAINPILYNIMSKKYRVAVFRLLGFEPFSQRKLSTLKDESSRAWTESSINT
Sequence of FGFR1 (P11362 22-822): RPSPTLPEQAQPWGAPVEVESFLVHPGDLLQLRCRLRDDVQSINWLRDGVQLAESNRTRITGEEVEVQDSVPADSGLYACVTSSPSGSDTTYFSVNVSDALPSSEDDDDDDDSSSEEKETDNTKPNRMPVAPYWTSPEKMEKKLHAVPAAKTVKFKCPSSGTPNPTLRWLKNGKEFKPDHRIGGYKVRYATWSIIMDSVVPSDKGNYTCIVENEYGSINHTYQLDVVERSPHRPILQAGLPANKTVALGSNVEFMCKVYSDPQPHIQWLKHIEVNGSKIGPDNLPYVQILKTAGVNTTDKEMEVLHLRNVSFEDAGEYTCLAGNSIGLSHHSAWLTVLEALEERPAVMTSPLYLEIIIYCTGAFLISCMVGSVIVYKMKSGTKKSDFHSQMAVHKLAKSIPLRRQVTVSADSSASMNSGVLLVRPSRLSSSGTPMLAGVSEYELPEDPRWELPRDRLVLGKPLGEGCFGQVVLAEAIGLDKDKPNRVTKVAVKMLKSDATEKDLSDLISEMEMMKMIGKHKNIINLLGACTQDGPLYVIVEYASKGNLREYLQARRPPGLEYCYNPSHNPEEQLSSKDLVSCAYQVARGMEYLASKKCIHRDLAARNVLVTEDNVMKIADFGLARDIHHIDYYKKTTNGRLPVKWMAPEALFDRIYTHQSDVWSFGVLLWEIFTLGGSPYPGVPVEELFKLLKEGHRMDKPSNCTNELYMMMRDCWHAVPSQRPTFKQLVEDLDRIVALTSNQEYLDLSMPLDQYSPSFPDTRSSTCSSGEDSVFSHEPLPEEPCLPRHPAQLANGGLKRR
Sequence of hGPR17 (Q13304 whole entry): as the sequence (Q13304 whole entry) above
Sequence of GPR17 (long isoform) (Q13304 whole entry, canonical isoform): as the sequence (Q13304 whole entry) above
Sequence of hP2RY1 (P47900 whole entry): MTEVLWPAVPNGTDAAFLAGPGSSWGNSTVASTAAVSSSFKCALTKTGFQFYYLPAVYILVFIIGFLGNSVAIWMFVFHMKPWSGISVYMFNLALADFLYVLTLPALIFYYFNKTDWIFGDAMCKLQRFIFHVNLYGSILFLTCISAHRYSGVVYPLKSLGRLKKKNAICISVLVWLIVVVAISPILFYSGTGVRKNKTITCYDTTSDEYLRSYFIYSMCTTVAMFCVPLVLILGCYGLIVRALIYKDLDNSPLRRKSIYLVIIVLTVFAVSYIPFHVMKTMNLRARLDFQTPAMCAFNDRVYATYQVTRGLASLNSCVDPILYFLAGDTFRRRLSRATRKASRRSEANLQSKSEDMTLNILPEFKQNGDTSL

In the case of `CC(C)(O)c1ccccc1CC[C@@H](SCC1(CC(=O)O)CC1)c1cccc(/C=C/c2ccc3ccc(Cl)cc3n2)c1` [montelukast, reference compound], the “block of MDL-stimulated receptor activation of GPR17” value (“block … of GPR17” below) (GPR17) is given as “partially” and the “antagonist activity at GPR17” value (hGPR17L [1]; calcium mobilization assay) is given as “partial antagonist activity”.

In the case of `CCCSc1nc(N[C@@H]2C[C@H]2c2ccc(F)c(F)c2)c2nnn([C@@H]3C[C@H](OCCO)[C@@H](O)[C@H]3O)c2n1` [ticagrelor], the “block of MDL-stimulated receptor activation” value (GPR17) is listed as “failed to block”.

In the case of `COc1ccc(C(=O)NC2CCCc3c2[nH]c2c(Cl)cccc32)cc1OC` (stereo not shown) [Compd 1, N-(8-Chloro-2,3,4,9-tetrahydro-1H-carbazol-1-yl)-3,4-dimethoxybenzamide], the “β-arrestin Schild Slope (95% CI)” value (hGPR17) is reported as 1.13 (0.96 – 1.30), the “attenuation of MDL-mediated inhibition of forskolin-stimulated cAMP” value (hGPR17L [2]) is reported as “significantly attenuated” and the “activity in FGFR1 functional counter assay” value (FGFR1) is reported as “no activity”. The “attenuation of MDL-mediated inhibition of GLP-1 secretion” value (hGPR17L [3]) was “significantly attenuated”, the Emax (hGPR17L [1]) was 109 ± 3.38% and the IC50 (hGPR17L [1]; Calcium Assay IC50(μM) Avg ± SEM, Table 2, reported only when efficacy ≥75%) was 5.47 ± 0.3 µM. For the same molecule, the “activity in GHSR1a β-arrestin counter assay” value (GHSR1a) was “no activity”.

In the case of `COc1cccc(-c2ccccc2-c2ccc(C(=O)Nc3ccc(OC)cc3C(=O)O)o2)c1` [PSB-22269], the “potency in a binding assay and functional assays” value (GPR17) is listed as “nanomolar range potency”.

With `CC(C)[C@@H](O)CC[C@@H](C)[C@H]1CC[C@H]2[C@@H]3CC=C4C[C@@H](O)CC[C@]4(C)[C@H]3CC[C@]12C` [24S-HC, 24(S)-hydroxycholesterol, reference compound] the “activation of GPR17 or potentiation of MDL” value (hGPR17L [4]; cAMP accumulation assay) was “not able to confirm” and the “activation of GPR17 or potentiation of MDL” value (hGPR17L [1]; calcium mobilization assay) was “not able to confirm”.

For `CNc1ncnc2c1ncn2[C@H]1C[C@H](OP(=O)(O)O)[C@@H](COP(=O)(O)O)O1` [MRS2179], the “block of P2RY1 activation” value (hP2RY1) was “antagonized”.

For `O=C(O)CCc1c(C(=O)O)[nH]c2cc(Cl)cc(Cl)c12` [MDL, 3-(2-carboxyethyl)-4,6-dichloro-1H-indole-2-carboxylic acid], the “forskolin-stimulated cAMP after GPR17 activation” value (hGPR17L [2]; forskolin plus MDL) is given as 3.5 ± 0.18 nM, the “inhibition of forskolin stimulated cAMP” value (hGPR17L [2]; forskolin plus MDL) is given as 29 ± 3% and the Ki [5] is given as 0.14 µM. For the same molecule, the EC50 (hGPR17L [4]) was 0.0019 µM, the “forskolin and IBMX-stimulated GLP-1 secretion after GPR17 activation” value (hGPR17L [3]) was 50.1 ± 4.6 pM and the “reduction of forskolin and IBMX-stimulated GLP-1 secretion” value (hGPR17L [3]) was 33 ± 8%. For the same molecule, the EC50 (hGPR17L [1]) was 0.28 µM.

In the case of `CSCCNc1nc(SCCC(F)(F)F)nc2c1ncn2[C@@H]1O[C@H](COP(=O)(O)OP(=O)(O)C(Cl)(Cl)P(=O)(O)O)[C@@H](O)[C@H]1O` [cangrelor], the “block of MDL-stimulated receptor activation” value (GPR17) is given as “failed to block”.

For `O=C(O)c1ccc(OCCCc2ccc(OCCCCOC3CCCCC3)cc2)c(C(=O)NC2CCCC(C(=O)O)C2)c1` (stereo not shown) [HAMI], the “attenuation of MDL-mediated inhibition of forskolin-stimulated cAMP” value (hGPR17L [2]) was “significantly attenuated”, the IC50 (hGPR17L [4]; IC50 (antagonist mode), assay development, 30 nM MDL (EC80), 1 μM forskolin) was 1.5 µM and the IC50 (hGPR17L [4]; IC50, cAMP HTRF assay, purified re-purchased/re-synthesized compounds reassessed) was 10 µM. The IC50 (GPR17) was “single digit micromolar range”, the “block … of GPR17” value (GPR17) was “completely” and the “attenuation of MDL-mediated inhibition of GLP-1 secretion” value (hGPR17L [3]) was “significantly attenuated”. For the same molecule, the IC50 (GPR17 (long isoform)) was 8.2 µM, the IC50 (hGPR17L [1]; IC50 (antagonist mode), assay development, stimulated with […] MDL (~EC80)) was 8.1 µM and the “antagonist activity at GPR17” value (hGPR17L [1]; calcium mobilization assay) was “full antagonist activity”. The “block of CYSLTR2 activation” value (hCysLTR2) was “antagonized”.

For `O=C(O)c1ccc(OCCCc2ccc(OCCCCOc3ccccc3)cc2)c(C(=O)NC2CCCC(C(=O)O)C2)c1` (stereo not shown) [BayCysLT2, reference compound], the “block … of GPR17” value (GPR17) is listed as “completely” and the “antagonist activity at GPR17” value (hGPR17L [1]; calcium mobilization assay) is listed as “full antagonist activity”.

With `O=C(O)c1ccc(C(=O)NC2CCCc3c2[nH]c2c(Cl)cccc32)cc1` (stereo not shown) [Compd 15, 4-((8-Chloro-2,3,4,9-tetrahydro-1H-carbazol-1-yl)carbamoyl)benzoic acid] the “attenuation of MDL-mediated inhibition of forskolin-stimulated cAMP” value (hGPR17L [2]) was “significantly attenuated”, the “attenuation of MDL-mediated inhibition of GLP-1 secretion” value (hGPR17L [3]) was “significantly attenuated” and the Emax (hGPR17L [1]) was 49.4 ± 2.45%.

In the case of `O=C(Nc1cccc2c(=O)cc(-c3nnn[nH]3)oc12)c1ccc(OCCCCc2ccccc2)cc1` [pranlukast], the “block of CYSLTR1 activation” value (hCysLTR1) is listed as “antagonized”, the “block … of GPR17” value (GPR17) is listed as “completely” and the “antagonist activity at GPR17” value (hGPR17L [1]; calcium mobilization assay) is listed as “full antagonist activity”.
